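A five-concentration, 48-hour dose response in 96-well plates underlies each endpoint, interpolated linearly between surrounding concentrations. GI50: concentration for 50% inhibition of growth.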 The source made the active and inactive calls. Cut-off read from the data, not from the text of the source: active = GI50 up to about 1.1 µM and inactive = higher.
Assays:
Assay in all cases: NCI-60 cell line screen, 48 h
[1] = tested on: 786-0
[2] = tested on: A498
[3] = tested on: A549
[4] = tested on: ACHN
[5] = tested on: BT-549
[6] = tested on: CAKI-1
[7] = tested on: CCRF-CEM
[8] = tested on: COLO 205
[9] = tested on: DU-145
[10] = tested on: EKVX
[11] = tested on: HCC 2998
[12] = tested on: HCT-116
[13] = tested on: HCT-15
[14] = tested on: HL-60
[15] = tested on: HOP-62
[16] = tested on: HOP-92
[17] = tested on: HT-29
[18] = tested on: Hs-578T
[19] = tested on: IGROV-1
[20] = tested on: KM12
[21] = tested on: M14
[22] = tested on: MCF7
[23] = tested on: MDA-MB-435
[24] = tested on: MDA-N
[25] = tested on: MOLT-4
[26] = tested on: Malme-3M
[27] = tested on: NCI-H23
[28] = tested on: NCI-H460
[29] = tested on: NCI-H522
[30] = tested on: OVCAR-3
[31] = tested on: OVCAR-4
[32] = tested on: OVCAR-5
[33] = tested on: OVCAR-8
[34] = tested on: PC-3
[35] = tested on: RPMI-8226
[36] = tested on: RXF 393
[37] = tested on: SF-268
[38] = tested on: SF-295
[39] = tested on: SF-539
[40] = tested on: SK-MEL-28
[41] = tested on: SK-MEL-5
[42] = tested on: SK-OV-3
[43] = tested on: SN12C
[44] = tested on: SNB-19
[45] = tested on: SNB-75
[46] = tested on: SR
[47] = tested on: SW-620
[48] = tested on: TK-10
[49] = tested on: U-251
[50] = tested on: UACC-257
[51] = tested on: UACC-62
[52] = tested on: UO-31
[53] = tested on: K562
[54] = tested on: LOX IMVI
[55] = tested on: MDA-MB-231
[56] = tested on: NCI-H226
[57] = tested on: NCI/ADR-RES
[58] = tested on: T47D

OCC1NCC(O)C(O)C1O (centres undefined)
GI50 [1]: > 100 µM (inactive) | GI50 [2]: > 100 µM (inactive) | GI50 [3]: > 100 µM (inactive) | GI50 [4]: > 100 µM (inactive) | GI50 [5]: > 100 µM (inactive) | GI50 [6]: > 100 µM (inactive) | GI50 [7]: > 100 µM (inactive) | GI50 [8]: > 100 µM (inactive) | GI50 [9]: > 100 µM (inactive) | GI50 [10]: > 100 µM (inactive) | GI50 [11]: > 100 µM (inactive) | GI50 [12]: > 100 µM (inactive) | GI50 [13]: > 100 µM | GI50 [14]: > 100 µM (inactive) | GI50 [15]: > 100 µM (inactive) | GI50 [16]: > 100 µM (inactive) | GI50 [17]: > 100 µM (inactive) | GI50 [18]: > 100 µM (inactive) | GI50 [19]: > 100 µM (inactive) | GI50 [20]: > 100 µM (inactive) | GI50 [21]: > 100 µM (inactive) | GI50 [22]: > 100 µM (inactive) | GI50 [23]: > 100 µM (inactive) | GI50 [24]: > 100 µM (inactive) | GI50 [25]: > 100 µM (inactive) | GI50 [26]: 22.4 µM (inactive) | GI50 [27]: > 100 µM (inactive) | GI50 [28]: > 100 µM (inactive) | GI50 [29]: > 100 µM (inactive) | GI50 [30]: > 100 µM (inactive) | GI50 [31]: > 100 µM (inactive) | GI50 [32]: > 100 µM (inactive) | GI50 [33]: > 100 µM (inactive) | GI50 [34]: > 100 µM (inactive) | GI50 [35]: > 100 µM (inactive) | GI50 [36]: > 100 µM (inactive) | GI50 [37]: > 100 µM (inactive) | GI50 [38]: > 10 µM (inactive) | GI50 [39]: > 100 µM (inactive) | GI50 [40]: > 100 µM (inactive) | GI50 [41]: > 100 µM (inactive) | GI50 [42]: > 100 µM (inactive) | GI50 [43]: > 100 µM (inactive) | GI50 [44]: > 100 µM (inactive) | GI50 [45]: > 100 µM (inactive) | GI50 [46]: > 100 µM (inactive) | GI50 [47]: > 100 µM (inactive) | GI50 [48]: > 100 µM (inactive) | GI50 [49]: > 100 µM (inactive) | GI50 [50]: > 100 µM (inactive) | GI50 [51]: > 100 µM (inactive) | GI50 [52]: > 100 µM (inactive)

C[B@@-]1(c2ccc(C(F)(F)F)cc2)N[C@@H](Cc2ccccc2)C(=O)O1
GI50 [1]: > 100 µM (inactive) | GI50 [2]: > 100 µM (inactive) | GI50 [3]: > 100 µM (inactive) | GI50 [4]: > 100 µM (inactive) | GI50 [5]: > 100 µM (inactive) | GI50 [7]: > 100 µM (inactive) | GI50 [8]: > 100 µM (inactive) | GI50 [9]: > 100 µM (inactive) | GI50 [10]: > 100 µM (inactive) | GI50 [11]: > 100 µM (inactive) | GI50 [12]: > 100 µM (inactive) | GI50 [13]: > 100 µM | GI50 [14]: 31.8 µM (inactive) | GI50 [15]: > 100 µM (inactive) | GI50 [16]: 11.9 µM (inactive) | GI50 [17]: > 100 µM (inactive) | GI50 [19]: > 100 µM (inactive) | GI50 [53]: > 100 µM (inactive) | GI50 [54]: > 100 µM (inactive) | GI50 [21]: > 100 µM (inactive) | GI50 [22]: > 100 µM (inactive) | GI50 [55]: > 100 µM (inactive) | GI50 [23]: > 100 µM (inactive) | GI50 [24]: > 100 µM (inactive) | GI50 [25]: > 100 µM (inactive) | GI50 [26]: > 100 µM (inactive) | GI50 [56]: > 100 µM (inactive) | GI50 [27]: > 100 µM (inactive) | GI50 [28]: > 100 µM (inactive) | GI50 [57]: > 100 µM (inactive) | GI50 [30]: > 100 µM (inactive) | GI50 [31]: > 100 µM (inactive) | GI50 [32]: > 100 µM (inactive) | GI50 [33]: > 100 µM (inactive) | GI50 [34]: > 100 µM (inactive) | GI50 [35]: > 100 µM (inactive) | GI50 [37]: > 100 µM (inactive) | GI50 [38]: > 100 µM (inactive) | GI50 [40]: > 100 µM (inactive) | GI50 [41]: > 100 µM (inactive) | GI50 [42]: > 100 µM (inactive) | GI50 [43]: > 100 µM (inactive) | GI50 [44]: > 100 µM (inactive) | GI50 [45]: 31.6 µM (inactive) | GI50 [46]: > 100 µM (inactive) | GI50 [47]: > 100 µM (inactive) | GI50 [58]: > 100 µM (inactive) | GI50 [48]: > 100 µM (inactive) | GI50 [49]: > 100 µM (inactive) | GI50 [50]: > 100 µM (inactive) | GI50 [51]: > 100 µM (inactive) | GI50 [52]: 88.1 µM (inactive)

From ChEMBL document CHEMBL1201862, “PubChem BioAssay data set” (2004)
